Like-named read-outs stand apart in the source and are kept apart here.
How the values were obtained:
[1] = Comparison of stability between crystal forms and amorphous form, 60° C. uncovered, relevant substances by HPLC; format: physicochemical; details: for Change in total relevant substances (conclusion) / Increase of total relevant substances: 60° C. uncovered; for Change in total relevant substances (conclusion): 5 days and 10 days
Method: Instrument: High Performance Liquid Chromatographic Instrument (Agilent 1260 series) Chromatographic column: chromatographic column using octylsilane chemically bonded silica as filler (HC-C8, 4.6×250 mm, 5 μm) Column temperature: 30° C. Detection wavelength: 230 nm Mobile phase: Mobile phase consisting of 0.06 mol/L sodium dihydrogen phosphate/0.06 mol/L sodium perchlorate solution-acetonitrile, and reversed-phase gradient elution was employed. Flow rate: 1.0 mL/min Injection volume: 10 μL

[2] = Evaluation on pharmacokinetics in SD rats, intragastric administration; format: in vivo; details: 5 mg/kg
Method: An amorphous form of a compound of Formula (I), the preparation method of which could be found in the particular Examples as disclosed in the international patent application (Publication No. WO 2012027960 A1).
Test animal: SD rats, male, weighed 190-250 g, 6 rats for each crystal form, purchased from Beijing Vital River Laboratory Animal Technology Co., Ltd.
Administration route: intragastric administration, at an administration dose of 5 mg/kg, and an administration volume of 10 mL/kg.
Blood collection: whole blood (about 100 μL) was collected from tail vein 10 min, 30 min, 1 h, 2 h, 4 h, 6 h, 8 h, and 24 h after administration, and added to K2EDTA-containing anticoagulation tubes. The whole blood sample was centrifuged for 6 min at 4° C., 8000 rpm in a high speed centrifuge, and plasma was separated. Plasma needed to be prepared within 30 min after blood collection, and stored at −80° C. in a refrigerator.
Plasma sample analysis: the plasma samples were analyzed by protein precipitation: to plasma (20 μL), an internal standard Gefitinib (200 μL, 50 ng/mL acetonitrile solution) was added; the resultant mixture was vortexed at 500 rpm for 5 min, and centrifuged at 4000 rpm for 20 min in a high speed centrifuge; to the supernatant (100 μL), water (100 μL) was added; the resultant mixture was mixed homogeneously under vortexing and analyzed by LC-MS/MS for blood concentration.
Calculation for PK parameters: PK parameters were calculated by using Pharsight Phoenix 6.2 software.

[3] = Study on stability of Crystal form I, II and III (influencing factors; character, moisture content, relevant substances by HPLC, XRPD); format: physicochemical; details: for Increase of moisture content: 10 days vs Day 0
Method: The samples were tested for character, relevant substances, moisture content, XRPD pattern, etc. […] The samples were tested for relevant substances, content, character, moisture content, XRPD pattern, etc. During the study, the uncovered experimental samples were kept in cultured dishes in the air. […] During the study, the uncovered experimental samples were kept in cultured dishes in the air. […] With respect to relevant substances, in accordance with High Performance Liquid Chromatography in Appendix V D in Pharmacopoeia of the People's Republic of China (2010), the samples were determined by area normalization method. Instrument: High Performance Liquid Chromatographic Instrument (Agilent 1200/1260 series) Chromatographic column: chromatographic column using octylsilane chemically bonded silica as filler (HC-C8, 4.6×250 mm, 5 μm) Column temperature: 30° C. Detection wavelength: 230 nm Mobile phase: mobile phase consisting of 0.03 mol/L diammonium hydrogen phosphate/0.03 mol/L sodium perchlorate solution-acetonitrile, and reversed-phase gradient elution was employed. Flow rate: 1.0 mL/min Injection volume: 10 μL Method for determining moisture content: the moisture content was determined in accordance with First Method for Determining Moisture Content B (Coulometric Titration) in Appendix VIII M in Pharmacopoeia of the People's Republic of China (2010).

[4] = 10 days, 40° C./RH75% uncovered

Structure (SMILES): C=CC(=O)Nc1cc2c(Nc3ccc(F)c(Cl)c3)ncnc2cc1OCC1CC2(CCN(C)CC2)C1 [Amorphous form, N-(4-((3-chloro-4-fluorophenyl)amino)-7-((7-methyl-7-azaspiro[3.5]nonan-2-yl)methoxy)quinazolin-6-yl)acrylamide]
- Total relevant substances ([1]; 0 day): 1.1%
- Change in total relevant substances (conclusion) [1]: rapid increase in total relevant substances
- Increase of total relevant substances ([1]; 5 days vs Day 0): 1.3%
- Increase of total relevant substances ([1]; 10 days vs Day 0): 2.1%
- Total relevant substances ([1]; 60° C. uncovered-5 days): 2.4%
- Total relevant substances ([1]; 60° C. uncovered-10 days): 3.2%
- Cmax and exposure amount (AUC) compared with Crystal form I, II and III [2]: significantly lower
- In vivo half-life compared with Crystal form I, II and III [2]: shorter
- AUC(0-inf) ([2]; male, SD, rat, plasma, po, suspension in water): 1150 ng·h/mL
- AUC0-t ([2]; male, SD, rat, plasma, po, suspension in water, read-out: AUC0-t): 1140 ng·h/mL
- Cmax ([2]; male, SD, rat, plasma, po, suspension in water, read-out: Cmax (maximum blood concentration)): 105 ng/mL
- half-life ([2]; male, SD, rat, plasma, po, suspension in water, read-out: T1/2 (drug elimination half-life) (converted)): 3.08 h
- Tmax ([2]; male, SD, rat, plasma, po, suspension in water, read-out: Tmax (time to maximum blood concentration)): 4 h

Structure (SMILES): C=CC(=O)Nc1cc2c(Nc3ccc(F)c(Cl)c3)ncnc2cc1OCC1CC2(CCN(C)CC2)C1 [Crystal form I, N-(4-((3-chloro-4-fluorophenyl)amino)-7-((7-methyl-7-azaspiro[3.5]nonan-2-yl)methoxy)quinazolin-6-yl)acrylamide]
- Total relevant substances ([1]; 0 day): 0.23%
- Change in total relevant substances (conclusion) [1]: little increase in total relevant substances
- Total relevant substances ([1]; 60° C. uncovered-5 days): 0.48%
- Total relevant substances ([1]; 60° C. uncovered-10 days): 0.47%
- Character ([3]; 0 day): light yellow
- Crystal form ([3]; 0 day): crystal-
- Moisture content ([3]; 0 day): 5.0%
- Relevant substance ([3]; 0 day): 0.78%
- Change in impurities ([3]; 60° C.-uncovered, UV light, 10 days): increased to some extent
- Character ([3]; 5 days, 40° C./RH75% covered): light yellow
- Crystal form ([3]; 5 days, 40° C./RH75% covered): the same
- Moisture content ([3]; 5 days, 40° C./RH75% covered): 5.1%
- Relevant substance ([3]; 5 days, 40° C./RH75% covered): 0.74%
- Character ([3]; 5 days, 40° C./RH75% uncovered): light yellow
- Crystal form ([3]; 5 days, 40° C./RH75% uncovered): the same
- Moisture content ([3]; 5 days, 40° C./RH75% uncovered): 5.4%
- Relevant substance ([3]; 5 days, 40° C./RH75% uncovered): 0.76%
- Character ([3]; 5 days, 60° C. covered): light yellow
- Crystal form ([3]; 5 days, 60° C. covered): the same
- Moisture content ([3]; 5 days, 60° C. covered): 5.0%
- Relevant substance ([3]; 5 days, 60° C. covered): 0.75%
- Character ([3]; 5 days, 60° C. uncovered): light yellow
- Crystal form ([3]; 5 days, 60° C. uncovered): the same
- Moisture content ([3]; 5 days, 60° C. uncovered): 4.9%
- Relevant substance ([3]; 5 days, 60° C. uncovered): 1.3%
- Character ([3]; 5 days, RH-75%): light yellow
- Crystal form ([3]; 5 days, RH-75%): the same
- Moisture content ([3]; 5 days, RH-75%): 5.5%
- Relevant substance ([3]; 5 days, RH-75%): 0.78%
- Character ([3]; 5 days, RH-92.5%): light yellow
- Crystal form ([3]; 5 days, RH-92.5%): the same
- Moisture content ([3]; 5 days, RH-92.5%): 5.5%
- Relevant substance ([3]; 5 days, RH-92.5%): 0.78%
- Character ([3]; 5 days, visible light): light yellow
- Crystal form ([3]; 5 days, visible light): the same
- Moisture content ([3]; 5 days, visible light): 5.1%
- Relevant substance ([3]; 5 days, visible light): 0.74%
- Character ([3]; 10 days, 40° C./RH75% covered): light yellow
- Crystal form ([3]; 10 days, 40° C./RH75% covered): the same
- Moisture content ([3]; 10 days, 40° C./RH75% covered): 4.9%
- Relevant substance ([3]; 10 days, 40° C./RH75% covered): 0.73%
- Character [3, 4]: light yellow
- Crystal form [3, 4]: the same
- Moisture content [3, 4]: 5.2%
- Relevant substance [3, 4]: 0.79%
- Character ([3]; 10 days, 60° C. covered): light yellow
- Crystal form ([3]; 10 days, 60° C. covered): the same
- Moisture content ([3]; 10 days, 60° C. covered): 4.8%
- Relevant substance ([3]; 10 days, 60° C. covered): 0.78%
- Character ([3]; 10 days, 60° C. uncovered): light yellow
- Crystal form ([3]; 10 days, 60° C. uncovered): the same
- Moisture content ([3]; 10 days, 60° C. uncovered): 4.6%
- Relevant substance ([3]; 10 days, 60° C. uncovered): 1.4%
- Character ([3]; 10 days, RH-75%): light yellow
- Crystal form ([3]; 10 days, RH-75%): the same
- Moisture content ([3]; 10 days, RH-75%): 5.7%
- Relevant substance ([3]; 10 days, RH-75%): 0.70%
- Character ([3]; 10 days, RH-92.5%): light yellow
- Crystal form ([3]; 10 days, RH-92.5%): the same
- Moisture content ([3]; 10 days, RH-92.5%): 5.8%
- Relevant substance ([3]; 10 days, RH-92.5%): 0.79%
- Character ([3]; 10 days, UV light): light yellow
- Crystal form ([3]; 10 days, UV light): the same
- Moisture content ([3]; 10 days, UV light): 5.2%
- Relevant substance ([3]; 10 days, UV light): 0.89%
- Increase of moisture content ([3]; high moisture RH-75%): 0.7%
- Increase of moisture content ([3]; high moisture RH-92.5%): 0.8%
- Stability of the samples (conclusion) ([3]; influencing factor conditions (high temperature, high moisture, light), 10 days): relatively stable
- Pharmacokinetic properties (conclusion) [2]: good pharmacokinetic properties
- AUC0-t ([2]; suspension in water): 1404 ng·h/mL
- AUCinf ([2]; suspension in water): 1414 ng·h/mL
- Cmax (maximum blood concentration) ([2]; suspension in water): 134 ng/mL
- T1/2 (drug elimination half-life) ([2]; suspension in water): 3.16 h
- Tmax (time to maximum blood concentration) ([2]; suspension in water): 4 h
